Results from publication PMC10451623 (Antioxidants, 2023).

Columns and labels:
PPARα-LBD [1] = target: T1, PPARα-LBD (Homo sapiens, UniProt Q07869); assay: TR-FRET SRC1 coactivator recruitment assay; type: biochemical; parameters: Human PPARα-LBD (amino acids 200–468); made in house; host or cells: Rosetta (DE3) pLysS (E. coli); conditions: for EC50: TR-FRET, SRC1 peptide, read-out: EC50, SRC1 recruitment to PPARα-LBD
T1 sequence (Q07869 200-468): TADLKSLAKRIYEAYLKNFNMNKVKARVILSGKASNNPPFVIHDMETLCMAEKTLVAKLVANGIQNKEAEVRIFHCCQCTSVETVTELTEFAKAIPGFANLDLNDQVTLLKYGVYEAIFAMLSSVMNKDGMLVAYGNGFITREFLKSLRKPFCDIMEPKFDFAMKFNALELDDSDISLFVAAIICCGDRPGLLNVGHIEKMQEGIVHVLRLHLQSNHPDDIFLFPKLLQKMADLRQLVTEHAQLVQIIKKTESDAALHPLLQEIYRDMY
Protocol: (§1) Subsequently, 5 µL of 4 nM Eu-W1024-labeled anti-6×His antibody/80 nM ULight-Streptavidin (PerkinElmer) was added to each well, and the microplate was incubated in the dark for 2 h, at room temperature. […] The nonlinear fitting and the calculation of the EC50 were performed using the Prism 9 software (GraphPad, San Diego, CA, USA).
(§2) The ligand-bound activated forms of PPARs are stabilized by associations with specific coactivators, thereby enabling the regulation of specific gene expression.
(§3) Figure 2 TR-FRET-based LBD-mediated human PPARα/δ/γ coactivator recruitment assay. […] Data are presented as the mean ± SE of three or four independent experiments with duplicate samples, and the calculated EC50 values are shown.

PPARγ-LBD [2] = target: T2, PPARγ-LBD (Homo sapiens, UniProt P37231); assay: TR-FRET PGC1α coactivator recruitment assay; type: biochemical; parameters: PPARγ-LBD (amino acids 203–477 in isoform 1); made in house; host or cells: Rosetta (DE3) pLysS (E. coli); conditions: PGC1α peptide, read-out: EC50, PGC1α recruitment to PPARγ-LBD
T2 sequence (P37231 203-477 isoform P37231-2): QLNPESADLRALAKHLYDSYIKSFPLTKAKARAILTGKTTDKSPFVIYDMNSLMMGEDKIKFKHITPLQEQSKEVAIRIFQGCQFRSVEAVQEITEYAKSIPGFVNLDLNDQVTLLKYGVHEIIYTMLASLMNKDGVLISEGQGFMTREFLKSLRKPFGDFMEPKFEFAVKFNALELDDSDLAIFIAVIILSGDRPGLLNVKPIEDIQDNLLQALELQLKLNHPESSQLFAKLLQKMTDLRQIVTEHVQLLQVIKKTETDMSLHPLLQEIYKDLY
Protocol: as §1, §2, §3

PPARδ-LBD [3] = target: T3, PPARδ-LBD (Homo sapiens, UniProt Q03181); assay: Thermal stability assay using circular dichroism spectroscopy; type: binding; parameters: PPARδ-LBD (amino acids 170–441); His tag (pET28a) (N); made in house; host or cells: Rosetta (DE3) pLysS (E. coli); conditions: CD at 222 nm; 10 µM LBD; GW501516 at 50 µM
T3 sequence (Q03181 170-441): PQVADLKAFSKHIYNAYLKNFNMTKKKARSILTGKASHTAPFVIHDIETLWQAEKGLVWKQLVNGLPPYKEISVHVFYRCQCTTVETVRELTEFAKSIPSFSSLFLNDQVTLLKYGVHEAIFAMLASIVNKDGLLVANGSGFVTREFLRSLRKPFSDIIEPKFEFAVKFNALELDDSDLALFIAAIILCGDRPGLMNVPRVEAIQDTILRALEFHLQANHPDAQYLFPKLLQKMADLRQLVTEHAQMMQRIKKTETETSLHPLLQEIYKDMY
Protocol: (§4) PPARα/δ/γ-LBD proteins (10 µM) were incubated with different concentrations of ligands in buffer C consisting of 20 mM Tris-HCl (pH 8.0), 150 mM NaCl, 1 mM Tris 2-carboxyethylphosphine (TCEP)-HCl, and 10% glycerol. The circular dichroism (CD) spectra were monitored within a 200–260 nm range at increasing temperatures from 30 °C to 70 °C (2 °C/min) using a J-1500 spectropolarimeter equipped with a PTC-510 thermal controller (JASCO, Tokyo, Japan). […] The ligand-induced increases in the Tm values were defined as ∆Tm.
(§5) Nuclear receptors, including PPARs, display an increased thermal stability upon ligand binding, which is detectable through CD spectroscopy.
(§6) Figure 3 Circular dichroism-based PPARα/δ/γ-LBD thermal stability assay. […] Data are presented as the mean ± SE of three or four (in parentheses) independent experiments. Differences vs. basal levels (with 0.1% DMSO) were statistically assessed by one-way ANOVA, followed by a Dunnett’s post hoc test: * p < 0.05, ** p < 0.01, and *** p < 0.001.

PPARα-LBD [4] = target: T1, PPARα-LBD; assay: as above; type: binding; parameters: Human PPARα-LBD (amino acids 200–468); His tag (pET28a) (N); made in house; host or cells: Rosetta (DE3) pLysS (E. coli); conditions: CD at 222 nm; 10 µM LBD; GW7647 at 10 µM
Protocol: as §4, §5, §6

PPARγ-LBD [5] = target: T2, PPARγ-LBD; assay: as above; type: binding; parameters: PPARγ-LBD (amino acids 203–477 in isoform 1); His tag (pET28a) (N); made in house; host or cells: Rosetta (DE3) pLysS (E. coli); conditions: CD at 222 nm, 10 µM LBD; for Effect on Tm of PPARγ-LBD (in words): GW1929 at 10 µM
Protocol: as §4, §5, §6

PPARδ-LBD [6] = target: T3, PPARδ-LBD; assay: TR-FRET PGC1α coactivator recruitment assay; type: biochemical; parameters: PPARδ-LBD (amino acids 170–441); made in house; host or cells: Rosetta (DE3) pLysS (E. coli); conditions: for EC50: TR-FRET, PGC1α peptide, read-out: EC50, PGC1α recruitment to PPARδ-LBD
Protocol: as §1, §2, §3

Efficacy, SRC1 recruitment to PPARα-LBD (PPARα-LBD [1]; 100% = 1 µM GW7647) [%]	EC50 (PPARα-LBD [1]) [µM]	EC50 (PPARγ-LBD [2]) [µM]	Effect on Tm of PPARδ-LBD (in words) (PPARδ-LBD [3])	Effect on Tm of PPARα-LBD (in words) (PPARα-LBD [4])	Effect on Tm of PPARγ-LBD (in words) (PPARγ-LBD [5])	EC50 (PPARδ-LBD [6]) [µM]	Relative ∆Tm response, PPARγ-LBD (highest value) (PPARγ-LBD [5]; 100% = ∆Tm by 10 µM GW1929) [%]	Efficacy, PGC1α recruitment to PPARδ-LBD (PPARδ-LBD [6]; 100% = 1 µM GW501516) [%]	Structure (SMILES)
–	13.8	4.65	increased the Tm values	increased the Tm values	increased the Tm values	3.86	61.4	–	O=C(O)CCCc1cc2cc(Cl)ccc2n1S(=O)(=O)c1ccc2ncsc2c1 [lanifibranor]
–	1.04	1.03	highly increased the Tm values	highly increased the Tm values	highly increased the Tm values	> 100	–	–	CCO[C@@H](Cc1ccc(OCCn2c(C)ccc2-c2ccc(SC)cc2)cc1)C(=O)O [saroglitazar]
–	> 1	19.4	increased the Tm values	increased the Tm values	increased the Tm values	0.0307	–	124	CCO[C@H](COc1ccc(C(F)(F)F)cc1)CSc1ccc(OCC(=O)O)c(C)c1 [seladelpar]

Structure (SMILES)	Efficacy, SRC1 recruitment to PPARα-LBD (PPARα-LBD [1]; 100% = 1 µM GW7647) [%]	EC50 (PPARα-LBD [1]) [µM]	EC50 (PPARγ-LBD [2]) [µM]	Effect on Tm of PPARδ-LBD (in words) (PPARδ-LBD [3])	Effect on Tm of PPARα-LBD (in words) (PPARα-LBD [4])	Effect on Tm of PPARγ-LBD (in words) (PPARγ-LBD [5])	EC50 (PPARδ-LBD [6]) [µM]	Relative ∆Tm response, PPARγ-LBD (highest value) (PPARγ-LBD [5]; 100% = ∆Tm by 10 µM GW1929) [%]	Efficacy, PGC1α recruitment to PPARδ-LBD (PPARδ-LBD [6]; 100% = 1 µM GW501516) [%]
CSc1ccc(C(=O)/C=C/c2cc(C)c(OC(C)(C)C(=O)O)c(C)c2)cc1 [elafibranor]	59.2	4.95	15.5	did not significantly alter the Tm values	did not significantly alter the Tm values	did not significantly alter the Tm values	–	–	–
